Assay results reported in US20240336572A1, “SUBSTITUTED INDAZOLE PROPIONIC ACID DERIVATIVE COMPOUNDS AND USES THEREOF” (Pfizer Inc., priority 2023, published 2024).

How the values were obtained:
AMPK 221 = biological target: T1, AMPK 221 (Homo sapiens, UniProt O43741+P54646); test: Biochemical profiling of AMPK activators by AMPK221 (HTRF/TR-FRET assay, SAMS peptide, PP2A dephosphorylation protection); details: for EC50: phosphorylated AMPK 221 (α2β2δ1), 11 point dilution, duplicate, 4-parameter fit; for Emax: phosphorylated AMPK 221, maximal activation
T1 construct: open reading frames encoding the full-length α2, β2 and δ1 subunits of human AMPK; made in house; host or cells: E. coli BL21-CodonPlus (DE3)-RIPL, pET-14b
Procedure: (§1) The biochemical EC50 (half-maximal concentration required for full activation) of compounds for the activation of AMPK was evaluated by HTRF assay using LANCE Ultra ULight-Acetyl-CoA Carboxylase (SAMS) peptide (commercially available, Perkin Elmer catalog TRF0133-M).
The reaction was terminated after 60 minutes incubation at room temperature by the addition of 5 μL of stop and detection cocktail, which consisted of 1× Perkin Elmer Lance buffer (Perkin Elmer catalog number CR97-100), 40 mM EDTA (Thermo Fisher catalog number BP2482-100), and 2 nM Eu-anti-Acetyl CoA Carboxylase [pSer70] antibody (Perkin Elmer, TRF0208-M). Plates were spun at 1000 RPM, 10 seconds.

AMPK 111 = biological target: T2, AMPK 111 (Homo sapiens, UniProt Q13131+Q9Y478); test: Biochemical profiling of AMPK activators by AMPK111 (HTRF/TR-FRET assay, SAMS peptide, PP2A dephosphorylation protection); details: for EC50: phosphorylated AMPK 111 (α1β1δ1 as printed), 11 point dilution, duplicate, 4-parameter fit; for Emax: phosphorylated AMPK 111, maximal activation
T2 construct: open reading frames encoding the full-length α1, β1 and δ1 subunits of human AMPK; made in house; host or cells: E. coli BL21-CodonPlus (DE3)-RIPL, pET-14b
Procedure: as §1
Following a fifteen-minute room temperature incubation, 5 μL of 30 nM protein phosphatase PP2A (isolation detailed above) diluted in the assay buffer was added to the plate, to dephosphorylate pThr172 of AMPK. […] The reaction was terminated after 60 minutes incubation at room temperature, by the addition of 5 μL of stop and detection cocktail, which consisted of 1× Perkin Elmer Lance buffer (Perkin Elmer catalog number CR97-100), 40 mM EDTA (Thermo Fisher catalog number BP2482-100), and 2 nM Eu-anti-Acetyl CoA Carboxylase [pSer70] antibody (Perkin Elmer, TRF0208-M).

T2 sequence (Q13131 whole entry): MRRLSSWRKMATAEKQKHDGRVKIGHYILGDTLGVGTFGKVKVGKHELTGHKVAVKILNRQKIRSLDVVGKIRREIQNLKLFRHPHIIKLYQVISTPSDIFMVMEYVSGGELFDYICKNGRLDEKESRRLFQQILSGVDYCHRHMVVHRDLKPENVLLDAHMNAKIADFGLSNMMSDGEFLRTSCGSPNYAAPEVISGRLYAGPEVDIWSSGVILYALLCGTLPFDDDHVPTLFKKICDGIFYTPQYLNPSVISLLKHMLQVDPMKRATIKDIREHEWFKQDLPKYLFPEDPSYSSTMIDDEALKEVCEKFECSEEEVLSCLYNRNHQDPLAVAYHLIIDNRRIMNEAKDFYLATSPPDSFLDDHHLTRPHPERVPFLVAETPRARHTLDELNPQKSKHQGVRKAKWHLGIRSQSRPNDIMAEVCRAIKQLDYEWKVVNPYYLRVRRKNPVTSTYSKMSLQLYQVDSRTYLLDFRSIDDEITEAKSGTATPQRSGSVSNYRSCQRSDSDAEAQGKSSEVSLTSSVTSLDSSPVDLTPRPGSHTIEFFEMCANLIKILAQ
T2 sequence (Q9Y478 whole entry): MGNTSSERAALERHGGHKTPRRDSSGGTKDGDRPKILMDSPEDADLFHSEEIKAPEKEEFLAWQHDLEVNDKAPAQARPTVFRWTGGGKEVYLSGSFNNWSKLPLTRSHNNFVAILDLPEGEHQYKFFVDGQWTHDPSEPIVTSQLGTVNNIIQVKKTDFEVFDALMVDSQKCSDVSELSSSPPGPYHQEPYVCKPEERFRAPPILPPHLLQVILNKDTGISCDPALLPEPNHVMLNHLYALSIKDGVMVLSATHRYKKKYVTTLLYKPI
T2 sequence (P54619 whole entry partner): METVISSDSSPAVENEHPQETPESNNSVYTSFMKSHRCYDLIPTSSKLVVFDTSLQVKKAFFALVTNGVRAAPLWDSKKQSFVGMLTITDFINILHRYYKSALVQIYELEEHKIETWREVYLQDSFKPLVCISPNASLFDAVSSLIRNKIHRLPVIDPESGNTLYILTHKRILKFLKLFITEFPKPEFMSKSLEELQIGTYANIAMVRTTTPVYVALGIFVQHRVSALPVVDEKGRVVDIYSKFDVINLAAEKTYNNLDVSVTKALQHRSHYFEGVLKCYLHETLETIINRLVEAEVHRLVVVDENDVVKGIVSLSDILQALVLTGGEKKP
T1 sequence (P54646 whole entry): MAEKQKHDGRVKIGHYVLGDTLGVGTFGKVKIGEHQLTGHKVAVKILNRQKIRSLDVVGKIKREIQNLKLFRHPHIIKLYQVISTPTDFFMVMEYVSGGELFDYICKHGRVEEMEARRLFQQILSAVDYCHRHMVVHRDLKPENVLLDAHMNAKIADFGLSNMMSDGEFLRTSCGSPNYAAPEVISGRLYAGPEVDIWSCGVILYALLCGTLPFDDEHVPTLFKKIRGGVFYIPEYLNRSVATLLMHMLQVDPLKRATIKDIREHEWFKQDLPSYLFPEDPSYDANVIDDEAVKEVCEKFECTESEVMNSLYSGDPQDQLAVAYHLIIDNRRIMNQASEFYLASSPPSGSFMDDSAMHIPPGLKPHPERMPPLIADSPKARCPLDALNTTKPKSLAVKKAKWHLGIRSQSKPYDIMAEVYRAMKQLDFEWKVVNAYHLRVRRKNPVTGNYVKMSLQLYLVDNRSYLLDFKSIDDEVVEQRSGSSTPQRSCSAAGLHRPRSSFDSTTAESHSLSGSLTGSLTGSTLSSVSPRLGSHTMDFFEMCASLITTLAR
T1 sequence (O43741 whole entry): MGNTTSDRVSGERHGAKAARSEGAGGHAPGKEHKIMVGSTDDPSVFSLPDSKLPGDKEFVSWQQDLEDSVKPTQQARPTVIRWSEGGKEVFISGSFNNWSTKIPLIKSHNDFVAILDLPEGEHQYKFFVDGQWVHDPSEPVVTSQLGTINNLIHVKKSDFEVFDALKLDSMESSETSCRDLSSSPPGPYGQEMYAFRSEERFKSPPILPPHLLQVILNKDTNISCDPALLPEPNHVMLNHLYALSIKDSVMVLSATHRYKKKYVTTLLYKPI
T1 sequence (P54619 whole entry partner): as the sequence (P54619 whole entry partner) above

Compound | EC50 (AMPK 221) [nM] | Emax (AMPK 221) [%] | EC50 (AMPK 111) [nM] | Emax (AMPK 111) [%]
CN(C)C(=O)c1ccc(-c2ccc(-c3cc4c(CCC(=O)O)n[nH]c4cc3Cl)cc2)c(O)c1 [Example 12, 3-(6-chloro-5-(4′-(dimethylcarbamoyl)-2′-hydroxy-[1,1′-biphenyl]-4-yl)-1H-indazol-3-yl)propanoic acid] | 62 | 56 | 16 | 72
O=C(O)CCCc1n[nH]c2cc(Cl)c(-c3ccc(-c4ccccc4O)cc3)cc12 [Example 43, 4-(6-chloro-5-(2′-hydroxy-[1,1′-biphenyl]-4-yl)-1H-indazol-3-yl)butanoic acid] | 248 | 62 | 51 | 80
O=C(O)CCc1n[nH]c2cc(Cl)c(-c3ccc(-c4ccc(C(=O)NCCCO)cc4)cc3)cc12 [Example 77, 3-(6-chloro-5-(4′-((3-hydroxypropyl)carbamoyl)-[1,1′-biphenyl]-4-yl)-1H-indazol-3-yl)propanoic acid] | 82 | 58 | 70 | 66
O=C(O)CCc1n[nH]c2cc(Cl)c(-c3ccc(-c4c(Cl)ccc(F)c4O)cc3)cc12 [Example 67, 3-(6-chloro-5-(6′-chloro-3′-fluoro-2′-hydroxy-[1,1′-biphenyl]-4-yl)-1H-indazol-3-yl)propanoic acid] | 953 | 63 | 69 | 85
N#Cc1cccc(-c2ccc(-c3cc4c(CCC(=O)O)n[nH]c4cc3Cl)cc2)c1O [Example 55, 3-(6-chloro-5-(3′-cyano-2′-hydroxy-[1,1′-biphenyl]-4-yl)-1H-indazol-3-yl)propanoic acid] | 389 | 38 | 208 | 45
Cn1c(O)nc2cc(-c3ccc(-c4cc5c(CCC(=O)O)n[nH]c5cc4Cl)cc3)ccc21 [Example 53, 3-(6-chloro-5-(4-(2-hydroxy-1-methyl-1H-benzo[d]imidazol-5-yl)phenyl)-1H-indazol-3-yl)propanoic acid] | 644 | 55 | 218 | 69
CC(=O)NCc1ccc(-c2ccc(-c3cc4c(CCC(=O)O)n[nH]c4cc3Cl)cc2)cc1 [Example 41, 3-(5-(4′-(acetamidomethyl)-[1,1′-biphenyl]-4-yl)-6-chloro-1H-indazol-3-yl)propanoic acid] | 235 | 65 | 70 | 66
CCOc1cccc(-c2ccc(-c3cc4c(CCC(=O)O)n[nH]c4cc3Cl)cc2)c1O [Example 25, 3-(6-chloro-5-(3′-ethoxy-2′-hydroxy-[1,1′-biphenyl]-4-yl)-1H-indazol-3-yl)propanoic acid] | 107 | 61 | 144 | 71
COc1ccc(-c2ccc(-c3cc4c(CCC(=O)O)n[nH]c4cc3Cl)cc2)c(O)c1OC [Example 52, 3-(6-chloro-5-(2′-hydroxy-3′,4′-dimethoxy-[1,1′-biphenyl]-4-yl)-1H-indazol-3-yl)propanoic acid] | 19 | 65 | 6 | 85
NC(c1ccc(-c2ccc(-c3cc4c(CCC(=O)O)n[nH]c4cc3Cl)cc2)c(O)c1)C(F)(F)F (stereo not shown) [Example 13, 3-(5-(4′-(1-amino-2,2,2-trifluoroethyl)-2′-hydroxy-[1,1′-biphenyl]-4-yl)-6-chloro-1H-indazol-3-yl)propanoic acid] | 69 | 67 | 21 | 86
COC(=O)c1ccc(-c2ccc(-c3cc4c(CCC(=O)O)n[nH]c4cc3Cl)cc2)c(O)c1 [Example 31, 3-(6-Chloro-5-(2′-hydroxy-4′-(methoxycarbonyl)-[1,1′-biphenyl]-4-yl)-1H-indazol-3-yl)propanoic acid] | 190 | 61 | 57 | 84
Cc1ccc(-c2ccc(-c3cc4c(CCC(=O)O)n[nH]c4cc3Cl)cc2)s1 [Example 56, 3-(6-chloro-5-(4-(5-methylthiophen-2-yl)phenyl)-1H-indazol-3-yl)propanoic acid] | 477 | 18 | 363 | 48
NC(=O)c1ccc(-c2ccc(-c3cc4c(CCC(=O)O)n[nH]c4cc3Cl)cc2)c(O)c1 [Example 6, 3-(5-(4′-Carbamoyl-2′-hydroxy-[1,1′-biphenyl]-4-yl)-6-chloro-1H-indazol-3-yl)propanoic acid] | 4 | 53 | 6 | 64
COc1nc(-c2ccc(-c3cc4c(CCC(=O)O)n[nH]c4cc3Cl)cc2)cs1 [Example 59, 3-(6-chloro-5-(4-(2-methoxythiazol-4-yl)phenyl)-1H-indazol-3-yl)propanoic acid] | 546 | 13 | 609 | 30
O=C(O)CNc1n[nH]c2cc(Cl)c(-c3ccc(-c4ccccc4O)cc3)cc12 [Example 19, (6-Chloro-5-(2′-hydroxy-[1,1′-biphenyl]-4-yl)-1H-indazol-3-yl)glycine] | 144 | 34 | 54 | 79
COc1cccc(-c2ccc(-c3cc4c(CCCC(=O)O)n[nH]c4cc3Cl)cc2)c1O [Example 74, 4-(6-chloro-5-(2′-hydroxy-3′-methoxy-[1,1′-biphenyl]-4-yl)-1H-indazol-3-yl)butanoic acid] | 66 | 69 | 92 | 80
O=C(O)CCc1n[nH]c2cc(Cl)c(-c3ccc(-c4ccc(OC(F)F)cc4O)cc3)cc12 [Example 69, 3-(6-chloro-5-(4′-(difluoromethoxy)-2′-hydroxy-[1,1′-biphenyl]-4-yl)-1H-indazol-3-yl)propanoic acid] | 1150 | 58 | 480 | 73
NCc1ccc(-c2ccc(-c3cc4c(CCC(=O)O)n[nH]c4cc3Cl)cc2)c(O)c1 [Example 8, 3-(5-(4′-(Aminomethyl)-2′-hydroxy-[1,1′-biphenyl]-4-yl)-6-chloro-1H-indazol-3-yl)propanoic acid] | 38 | 56 | 26 | 75
O=C(O)CCc1n[nH]c2cc(Cl)c(-c3ccc(-c4cccc(OC(F)F)c4O)cc3)cc12 [Example 57, 3-(6-chloro-5-(3′-(difluoromethoxy)-2′-hydroxy-[1,1′-biphenyl]-4-yl)-1H-indazol-3-yl)propanoic acid] | 426 | 63 | 103 | 75
COc1c(Cl)ccc(-c2ccc(-c3cc4c(CCC(=O)O)n[nH]c4cc3Cl)cc2)c1O [Example 28, 3-(6-chloro-5-(4′-chloro-2′-hydroxy-3′-methoxy-[1,1′-biphenyl]-4-yl)-1H-indazol-3-yl)propanoic acid] | 136 | 63 | 277 | 73
O=C(O)CCc1n[nH]c2cc(Cl)c(-c3ccc(-c4c(O)cccc4F)cc3)cc12 [Example 50, 3-(6-chloro-5-(2′-fluoro-6′-hydroxy-[1,1′-biphenyl]-4-yl)-1H-indazol-3-yl)propanoic acid] | 337 | 55 | 153 | 76
O=C(O)CCc1n[nH]c2cc(Cl)c(-c3ccc(-c4ccc(C(=O)O)cc4O)cc3)cc12 [Example 36, 4′-(3-(2-carboxyethyl)-6-chloro-1H-indazol-5-yl)-2-hydroxy-[1,1′-biphenyl]-4-carboxylic acid] | 200 | 49 | 45 | 68
Cc1cncc(O)c1-c1ccc(-c2cc3c(CCC(=O)O)n[nH]c3cc2Cl)cc1 [Example 27, 3-(6-chloro-5-(4-(3-hydroxy-5-methylpyridin-4-yl)phenyl)-1H-indazol-3-yl)propanoic acid] | 125 | 62 | 7 | 87
COc1cc(F)cc(-c2ccc(-c3cc4c(CCC(=O)O)n[nH]c4cc3Cl)cc2)c1O [Example 42, 3-(6-chloro-5-(5′-fluoro-2′-hydroxy-3′-methoxy-[1,1′-biphenyl]-4-yl)-1H-indazol-3-yl)propanoic acid] | 244 | 64 | 291 | 68
COc1cc(O)c(-c2ccc(-c3cc4c(CCC(=O)O)n[nH]c4cc3Cl)cc2)c(Cl)c1 [Example 49, 3-(6-chloro-5-(2′-chloro-6′-hydroxy-4′-methoxy-[1,1′-biphenyl]-4-yl)-1H-indazol-3-yl)propanoic acid] | 325 | 61 | 96 | 74
